Data: US20230416205A1, “COMPOUNDS, COMPOSITIONS, AND METHODS” (Denali Therapeutics Inc, priority 2020, published 2023)
Where two headings read alike, the source gives them in different places.

Test system: NLRP3
Assay: IL-1β secretion assay in PMA-differentiated, LPS/nigericin-stimulated THP-1 cells (384-well, ELISA read-out)
Format: cell-based, human
Conditions: Homo sapiens
Outline: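 THP-1 cells differentiated with PMA (5 ng/mL, 40 h), primed in serum-free medium with 25 ng/mL LPS for 2 h, treated with compounds 1 h (0.5% DMSO), then stimulated with nigericin for 2 h at 37 °C. Supernatant IL-1β measured by ELISA; responses normalized to LPS+5 μM nigericin and LPS-only controls.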

[1] = THP-1, IL-1β secretion, PMA-differentiated THP-1 cells, LPS then nigericin stimulation, ELISA read at 450 nm, read-out: Activity
[2] = THP-1, Table 4, IL-1β secretion, LPS/nigericin-stimulated THP-1 cells, read-out: IC50

## O=C(CN1CC2(CC2)c2cc(Br)ccc2C1=O)Nc1ccc2nncn2c1 [Example 159, 2-(6-bromo-1-oxospiro[3H-isoquinoline-4,1′-cyclopropane]-2-yl)-N-([1,2,4]triazolo[4,3-a]pyridin-6-yl)acetamide]
[1]
  IC50: < 10 µM
[2]
  IC50: 1.77 µM

## O=C(CN1CC2(CC2)c2cc(Br)ccc2C1=O)NC1(CO)CC1 [Example 160, 2-(6-bromo-1-oxospiro[3H-isoquinoline-4,1′-cyclopropane]-2-yl)-N-[1-(hydroxymethyl)cyclopropyl]acetamide]
[1]
  IC50: < 10 µM
[2]
  IC50: 4.2 µM

## O=C(CN1CC2(CC2)c2cc(Br)ccc2C1=O)NC1(c2ccccc2)CC1 [Example 161, 2-(6-bromo-1-oxospiro[3H-isoquinoline-4,1′-cyclopropane]-2-yl)-N-(1-phenylcyclopropyl)acetamide]
[1]
  IC50: < 10 µM
[2]
  IC50: 6.12 µM

## O=C(CN1CC2(CC2)c2cc(Br)ccc2C1=O)Nc1cccc2ncccc12 [Example 162, 2-(6-bromo-1-oxospiro[3H-isoquinoline-4,1′-cyclopropane]-2-yl)-N-quinolin-5-ylacetamide]
[1]
  IC50: < 10 µM
[2]
  IC50: 3.54 µM

## O=C(CN1CC2(CC2)c2cc(Br)ccc2C1=O)Nc1ncc(F)s1 [Example 163, 2-(6-bromo-1-oxospiro[3H-isoquinoline-4,1′-cyclopropane]-2-yl)-N-(5-fluoro-1,3-thiazol-2-yl)acetamide]
[1]
  IC50: < 10 µM
[2]
  IC50: 6.66 µM

## O=C(CN1CC2(CC2)c2cc(Br)ccc2C1=O)NCC1CCC1 [Example 164, 2-(6-bromo-1-oxospiro[3H-isoquinoline-4,1′-cyclopropane]-2-yl)-N-(cyclobutylmethyl)acetamide]
[1]
  IC50: < 10 µM
[2]
  IC50: 6.01 µM

## O=C(CN1CC2(CC2)c2cc(Br)ccc2C1=O)NC1CCN(c2ccc(Cl)nn2)CC1 [Example 165, 2-(6-bromo-1-oxospiro[3H-isoquinoline-4,1′-cyclopropane]-2-yl)-N-[1-(6-chloropyridazin-3-yl)piperidin-4-yl]acetamide]
[1]
  IC50: < 10 µM
[2]
  IC50: 1.63 µM

## O=C(CN1CC2(CC2)c2cc(Br)ccc2C1=O)Nc1n[nH]c2ccccc12 [Example 166, 2-(6-bromo-1-oxospiro[3H-isoquinoline-4,1′-cyclopropane]-2-yl)-N-(1H-indazol-3-yl)acetamide]
[1]
  IC50: < 10 µM
[2]
  IC50: 4.84 µM

## O=C(CN1CC2(CC2)c2cc(Br)ccc2C1=O)Nc1ccc2[nH]nnc2c1 [Example 167, N-(1H-benzotriazol-5-yl)-2-(6-bromo-1-oxospiro[3H-isoquinoline-4,1′-cyclopropane]-2-yl)acetamide]
[1]
  IC50: < 10 µM
[2]
  IC50: 0.146 µM

## O=C(CN1CC2(CC2)c2cc(Br)ccc2C1=O)Nc1cc(C2CC2)n[nH]1 [Example 168, 2-(6-bromo-1-oxospiro[3H-isoquinoline-4,1′-cyclopropane]-2-yl)-N-(3-cyclopropyl-1H-pyrazol-5-yl)acetamide]
[1]
  IC50: < 10 µM
[2]
  IC50: 2.83 µM

## O=C(CN1CC2(CC2)c2cc(Br)ccc2C1=O)Nc1ccc2nc[nH]c2c1 [Example 169, N-(3H-benzimidazol-5-yl)-2-(6-bromo-1-oxospiro[3H-isoquinoline-4,1′-cyclopropane]-2-yl)acetamide]
[1]
  IC50: < 10 µM
[2]
  IC50: 0.605 µM

## O=C(CN1CC2(CC2)c2cc(Br)ccc2C1=O)Nc1ccc2[nH]ncc2c1 [Example 170, 2-(6-bromo-1-oxospiro[3H-isoquinoline-4,1′-cyclopropane]-2-yl)-N-(1H-indazol-5-yl)acetamide]
[1]
  IC50: < 10 µM
[2]
  IC50: 1.12 µM

## Cc1cncc(NC(=O)CN2CC3(CC3)c3cc(Br)ccc3C2=O)n1 [Example 171, 2-(6-bromo-1-oxospiro[3H-isoquinoline-4,1′-cyclopropane]-2-yl)-N-(6-methylpyrazin-2-yl)acetamide]
[1]
  IC50: 10 to 15 µM
[2]
  IC50: 11 µM

## O=C(CN1CC2(CC2)c2cc(Br)ccc2C1=O)Nc1ccc(-c2nnn[nH]2)cc1 [Example 172, 2-(6-bromo-1-oxospiro[3H-isoquinoline-4,1′-cyclopropane]-2-yl)-N-[4-(1H-tetrazol-5-yl)phenyl]acetamide]
[1]
  IC50: > 15 µM
[2]
  IC50: 23.7 µM

## O=C(CN1CC2(CC2)c2cc(Br)ccc2C1=O)Nc1ccc2ocnc2c1 [Example 173, N-(1,3-benzoxazol-5-yl)-2-(6-bromo-1-oxospiro[3H-isoquinoline-4,1′-cyclopropane]-2-yl)acetamide]
[1]
  IC50: < 10 µM
[2]
  IC50: 2.3 µM

## CC(C)(O)CC1(NC(=O)CN2CC3(CC3)c3cc(Br)ccc3C2=O)CC1 [Example 174, 2-(6-bromo-1-oxospiro[3H-isoquinoline-4,1′-cyclopropane]-2-yl)-N-[1-(2-hydroxy-2-methylpropyl)cyclopropyl]acetamide]
[1]
  IC50: 10 to 15 µM
[2]
  IC50: 10.9 µM

## O=C(CN1CC2(CC2)c2cc(Br)ccc2C1=O)Nc1ccn2nccc2n1 [Example 175, 2-(6-bromo-1-oxospiro[3H-isoquinoline-4,1′-cyclopropane]-2-yl)-N-pyrazolo[1,5-a]pyrimidin-5-ylacetamide]
[1]
  IC50: < 10 µM
[2]
  IC50: 0.672 µM

## O=C(CN1CC2(CC2)c2cc(Br)ccc2C1=O)Nc1cc2cccnc2cn1 [Example 176, 2-(6-bromo-1-oxospiro[3H-isoquinoline-4,1′-cyclopropane]-2-yl)-N-(1,7-naphthyridin-6-yl)acetamide]
[1]
  IC50: < 10 µM
[2]
  IC50: 2.95 µM

## N#Cc1ccc2c(c1)C1(CC1)CN(CC(=O)Nc1ncc(F)cn1)C2=O [Example 177, 2-(6-cyano-1-oxospiro[3H-isoquinoline-4,1′-cyclopropane]-2-yl)-N-(5-fluoropyrimidin-2-yl)acetamide]
[1]
  IC50: < 10 µM
[2]
  IC50: 4.41 µM

## CC1(C)CN(CC(=O)Nc2ncc(F)cn2)C(=O)c2ccc(Br)cc21 [Example 178, 2-(6-bromo-4,4-dimethyl-1-oxo-3H-isoquinolin-2-yl)-N-(5-fluoropyrimidin-2-yl)acetamide]
[1]
  IC50: < 10 µM
[2]
  IC50: 1.05 µM

## O=C(CN1CC2(CC2)c2cc(Br)ccc2C1=O)Nc1cn2ccnc2cn1 [Example 179, 2-(6-bromo-1-oxospiro[3H-isoquinoline-4,1′-cyclopropane]-2-yl)-N-imidazo[1,2-a]pyrazin-6-ylacetamide]
[1]
  IC50: < 10 µM
[2]
  IC50: 2.24 µM

## O=C(CN1CC2(CC2)c2cc(Br)ccc2C1=O)Nc1ccc2nccn2n1 [Example 180, 2-(6-bromo-1-oxospiro[3H-isoquinoline-4,1′-cyclopropane]-2-yl)-N-imidazo[1,2-b]pyridazin-6-ylacetamide]
[1]
  IC50: < 10 µM
[2]
  IC50: 0.508 µM

## O=C(CN1CC2(CC2)c2cc(Br)ccc2C1=O)Nc1nc2ccccn2n1 [Example 181]
[1]
  IC50: < 10 µM
[2]
  IC50: 0.143 µM

## Cc1ccnc(NC(=O)CN2CC3(CC3)c3cc(Br)ccc3C2=O)c1 [Example 182, 2-(6-bromo-1-oxospiro[3H-isoquinoline-4,1′-cyclopropane]-2-yl)-N-(4-methylpyridin-2-yl)acetamide]
[1]
  IC50: < 10 µM
[2]
  IC50: 3.14 µM

## CS(=O)(=O)c1ccc(NC(=O)CN2CC3(CC3)c3cc(Br)ccc3C2=O)c(Cl)c1 [Example 183, 2-(6-bromo-1-oxospiro[3H-isoquinoline-4,1′-cyclopropane]-2-yl)-N-(2-chloro-4-methylsulfonylphenyl)acetamide]
[1]
  IC50: < 10 µM
[2]
  IC50: 8.08 µM
